Holding throughout (type): physicochemical
Series [1] in a line: Differential scanning calorimetry (DSC). To be noted: sealed pan, 10° C./min. The protocol: DSC chart was obtained using a TA Instruments DSC Q1000 differential scanning calorimeter. Each sample was analyzed in a crimped pan with a pinhole, heated under a nitrogen purge at a rate of 10° C./min, from 10° C. to 250° C. or 300° C.
Differential Scanning Calorimeter (DSC) chart was obtained by DSC Q1000 differential scanning calorimeter (TA Instruments). Each sample was analyzed in a crimped pan with a pinhole. The measurement condition is shown below: • Atmosphere: Nitrogen • Elevated temperature rate: 10° C./min • Temperature range: From 10° C. to 250 or 300° C.
All DSC analyses were performed using TA Instruments Q100 differential scanning calorimeter. Lots 1-3 were analyzed in a sealed pan. Each sample was heated under a 50 mL/min nitrogen purge at a heating rate of 10° C./min, from a starting temperature of 25° C. up to a final temperature of 300° C. Sample size ranged from […].
For orientation: Differential scanning calorimetry records heat flow against a reference as temperature is scanned.

Series [2] in a line: Dynamic vapor sorption (DVS) moisture sorption isotherm, Hiden IGA-sorp. As to conditions: for hygroscopicity (in words): tosylate. The protocol: DVS moisture sorption isotherms were generated using a Hiden Analytical IGA-sorp moisture sorption analyzer. Samples were run as received without pre-analysis drying. Each sample was equilibrated between about 30 and 120 minutes at each relative humidity (RH) step. Temperature was fixed at about 25° C. and the relative humidity steps (0 to 95% RH) were in 5-10% increments. Sample sizes ranged from 3 to 30 mg. After DVS measurement, XRPD was measured in order to check the solid form. Dynamic Vapor sorption (DVS) moisture sorption isotherms were generated using IGA-sorp moisture sorption analyzer (Hiden Analytical). Sample measurements were run without drying before analyses. XRPD was measured in order to check any changes of the solid form after the moisture sorption/desorption. The measurement condition is shown below: • Time at each RH steps: From 30 to 120 minutes • Relative humidity steps: 5 or 10% steps • Temperature: 25° C.

Series [3] is described as follows: Solubility of Compound 1 Tosylate in solvents. The protocol: Considering the formation of the genotoxic impurities with alcohol, water was selected as the solvent and acetone as the anti-solvent. The solubility in the water-acetone binary solvent system indicates the feasibility for crystallization in this solvent system. Further solubility was also measured to help define the operation conditions.

The mark [4] stands for this setting: Lot 1, recrystallized from water/acetone.
[5] abbreviates: Lot 2, recrystallized from water/acetone.
Setting [6] is: Lot 3, recrystallized from water/acetone.

This is an account of results in patent US20250276980A1, “SALTS OF A HETEROCYCLIC COMPOUND AND CRYSTALLINE FORMS, PROCESSES FOR PREPARING, THERAPEUTIC USES, AND PHARMACEUTICAL COMPOSITIONS THEREOF” (Sunovion Pharmaceuticals Inc., priority 2020, published 2025).

Consider `CNC[C@@H]1OCCn2nc3ccccc3c21.Cc1ccc(S(=O)(=O)O)cc1` [Compound 1 Tosylate, (S)-1-(3,4-dihydro-1H-[1,4]oxazino[4,3-b]indazol-1-yl)-N-methylmethanamine tosylate], for which the “DSC Onset” value in series [1] (setting [4]) came out at 240.5 °C; in series [1] (setting [5]), 240.2 °C; in series [1] (setting [6]) it was 239.7 °C. The “DSC Peak” value in series [1] (setting [4]) is 241.9 °C; in series [1] (setting [5]), 241.7 °C; in series [1] (setting [6]), 241.4 °C. Further, the “DSC ΔHf” value in series [1] (setting [4]) was 122 J/g; in series [1] (setting [5]), 113 J/g; in series [1] (setting [6]), 123 J/g. The “weight gain at 95% RH” value in series [2] (about 25° C., 95% RH) is “about 1%”. Also, the figures for the “hygroscopicity (in words)” value in series [2] (listed as Tosylate) and in series [2] (listed as tosylate) were “less hygroscopicity” and “low hygroscopicity”, respectively. The “solubility (in words)” value in series [3] was “decent solubility in methanol and water”.
